In ChEMBL document CHEMBL1136081, “Structure-activity relationships of novel anti-malarial agents. Part 7: N-(3-benzoyl-4-tolylacetylaminophenyl)-3-(5-aryl-2-furyl)acrylic acid amides with polar moieties” (Bioorg Med Chem Lett, 2003) one finds IC50 data, which are given here for eleven compounds.

For the experiment, the system named is Plasmodium falciparum. As to the kind of experiment: Inhibition against Plasmodium falciparum Dd2 in erythrocytes in semiautomated micro dilution assay. The experiment is classed as functional, organism-based.

One may read the IC50 as the concentration that gives 50% inhibition. The low end stands for greater potency in that assay, the high end for weaker potency in that assay. The compound `Cc1ccc(CC(=O)Nc2ccc(NC(=O)/C=C/c3ccc(-c4ccc(NC=O)cc4)o3)cc2C(=O)c2ccccc2)cc1` returned a half-inhibitory concentration (IC50) of 280 nM.

The compound `Cc1ccc(CC(=O)Nc2ccc(NC(=O)/C=C/c3ccc(-c4ccc(N)cc4)o3)cc2C(=O)c2ccccc2)cc1` returned an IC50 of 260 nM.

In the case of `Cc1ccc(CC(=O)Nc2ccc(NC(=O)/C=C/c3ccc(-c4ccc(C(N)=O)cc4)o3)cc2C(=O)c2ccccc2)cc1`, the IC50 turned out to be 560 nM.

In turn, `COC(=O)c1ccc(-c2ccc(/C=C/C(=O)Nc3ccc(NC(=O)Cc4ccc(C)cc4)c(C(=O)c4ccccc4)c3)o2)cc1` had a half-maximal inhibitory concentration (IC50) of 170 nM.

As to `Cc1ccc(CC(=O)Nc2ccc(NC(=O)/C=C/c3ccc(-c4ccc(S(N)(=O)=O)cc4)o3)cc2C(=O)c2ccccc2)cc1`, the IC50 is 200 nM.

Compound `CC(=O)c1ccc(-c2ccc(/C=C/C(=O)Nc3ccc(NC(=O)Cc4ccc(C)cc4)c(C(=O)c4ccccc4)c3)o2)cc1` had an IC50 of 67 nM.

In the case of `Cc1ccc(CC(=O)Nc2ccc(NC(=O)/C=C/c3ccc(-c4ccc(C(F)(F)F)cc4)o3)cc2C(=O)c2ccccc2)cc1`, the IC50 is 77 nM.

`CCS(=O)(=O)c1ccc(-c2ccc(/C=C/C(=O)Nc3ccc(NC(=O)Cc4ccc(C)cc4)c(C(=O)c4ccccc4)c3)o2)cc1` came in with an IC50 of 60 nM.

In turn, `Cc1ccc(CC(=O)Nc2ccc(NC(=O)/C=C/c3ccc(-c4ccc(C#N)cc4)o3)cc2C(=O)c2ccccc2)cc1` came in with a 50% inhibitory concentration (IC50) of 220 nM.

In turn, `CC(=O)Nc1ccc(-c2ccc(/C=C/C(=O)Nc3ccc(NC(=O)Cc4ccc(C)cc4)c(C(=O)c4ccccc4)c3)o2)cc1` showed a half-maximal inhibitory concentration (IC50) of 560 nM.

`Cc1ccc(CC(=O)Nc2ccc(NC(=O)/C=C/c3ccc(-c4ccc(S(C)(=O)=O)cc4)o3)cc2C(=O)c2ccccc2)cc1`: the IC50 was found to be 37 nM.
